Like-named read-outs stand apart in the source and are kept apart here.
How the values were obtained:
[1] = tested on: head and neck cancer cell line; conditions: Parkinson et al 2007; cited from earlier work
[2] = tested on: recurrent and/or metastatic squamous cell carcinoma of the head and neck (R/M HNSCC); assay: Phase II randomized study: efficacy (PFS, ORR, RECIST 1.1); format: in vivo, human
From the text: Primary objective: The primary objective was to evaluate the efficacy of NRC-2694-A in combination with platinum plus paclitaxel regimen compared to platinum plus paclitaxel regimen alone in terms of progression free survival (PFS) in patients with recurrent and/or metastatic squamous cell carcinoma of the head and neck (R/M HNSCC).
Secondary objectives: The secondary objective was (a) to compare the objective response rate in patients with R/M HNSCC treated with NRC-2694-A in combination with platinum plus paclitaxel regimen compared to platinum plus paclitaxel regimen alone and (b) to compare the safety and tolerability of the two regimens.
The study was an open-label, prospective, randomized, active controlled, multicentric phase-II study of NRC-2694-A in patients with histologically/cytologically confirmed HNSCC with radiological progression (recurrence and/or metastasis).
Patients between 18 and 65 years of age with life expectancy≥3 months having recurrent and/or metastatic disease for whom cisplatin/carboplatin plus paclitaxel regimen was planned were eligible for the study. Those who fit all the inclusion and exclusion criteria were randomized to receive either chemotherapy+NRC-2694-A (study drug arm) or chemotherapy alone (control arm). • Arm-I (study drug arm): NRC-2694-A+cisplatin/carboplatin and paclitaxel • Arm-II (control arm): cisplatin/carboplatin and paclitaxel
During the study, 300 mg NRC-2694-A was administered once daily in the morning with or without food with 240 ml of water. The dose of cisplatin was 100 mg/m^2 of body surface area as intravenous infusion over an hour. Alternatively, the dose of carboplatin was based on the target area under the curve (AUC) equivalent to 5 mg/mL/min, as an infusion over 1 hour. The choice of platinum compound was per the investigator's discretion and was dependent on the type of platinum received during prior therapy, avoiding repetition. Paclitaxel was given at a dose of 175 mg/m^2 of body surface area as an infusion over 3 hours. • Monotherapy: After completion of 6 cycles of chemotherapy in control arm or in study drug arm, patients received 300 mg of NRC-2694-A once daily as a monotherapy.

[3] = Phase I clinical study: safety, MTD and DLT; format: in vivo
Procedure: An open label, prospective, non-randomized, multicentre, dose escalation study was performed. The starting dose selected for this study was 100 mg/day and the maximum dose received was 500 mg/day.
Safety: Assessments were performed within 7 days before administration of study medication and subsequently on Days 12, 18, 24, 30, 45, 60, 75 and 90. However, for assessing the DLT and MTD first 30 day safety data was considered.

[4] = tested on: recurrent squamous cell carcinoma of the head and neck; assay: Phase I clinical study: tumour evaluation per RECIST 1.1; format: in vivo, human
Procedure: A Phase I clinical study was conducted to evaluate the safety, pharmacokinetics and anti-tumour activity of NRC-2694-A (NRC-2694 dihydrochloride) in patients with recurrent squamous cell carcinoma of the head and neck.
An open label, prospective, non-randomized, multicentre, dose escalation study was performed. The starting dose selected for this study was 100 mg/day and the maximum dose received was 500 mg/day. Eligible subjects were housed in a unit of the hospital for 12 days, beyond which patients who tolerated the drug were treated on out-patient (ambulatory) basis.
Tumour Evaluation: Change in the size of evaluable tumour from base line was evaluated as per RECIST criteria (version 1.1).

[5] = Phase I clinical study: plasma pharmacokinetics (LC-MS/MS); format: in vivo, human; conditions: 100 mg/day to 500 mg/day
Procedure: Secondary: To evaluate the single and multiple dose pharmacokinetics and anti-tumour activity of NRC-2694-A. An open label, prospective, non-randomized, multicentre, dose escalation study was performed. The starting dose selected for this study was 100 mg/day and the maximum dose received was 500 mg/day. Eligible subjects were housed in a unit of the hospital for 12 days, beyond which patients who tolerated the drug were treated on out-patient (ambulatory) basis. Pharmacokinetic Evaluation: Estimation of NRC-2694 in plasma was done using a validated LC-MS/MS method. Based on the plasma concentration data, non-compartmental pharmacokinetic variables viz. area under the curve (AUC), peak plasma concentration (Cmax), time to peak plasma concentration (Tmax), and elimination rate constant, volume of distribution, half-life and clearance were calculated for single dose (on Day 1) as well as at steady state (on Day 12). Blood samples at pre-dose, 0.5, 1, 1.5, 2, 2.5, 3, 4, 6, 8, 12 and 24 hrs were collected in K2 EDTA prefilled vacutainers.

[6] = tested on: R/M HNSCC; conditions: cited from earlier work
[7] = Stage-II monotherapy, among the 4 patients with partial response in Stage-I

In the case of `C#Cc1cccc(Nc2ncnc3cc(OC)c(OCCCN4CCOCC4)cc23)c1` [NRC-2694, (3-Ethynyl-phenyl)-[7-methoxy-6-(3-morpholin-4-yl-propoxy)-quinazolin-4-yl]-amine], the “inhibition of growth of a head and neck cancer cell line grafted into athymic female mice” value [1] is given as “low to moderate inhibition”.
With `C#Cc1cccc(Nc2ncnc3cc(OC)c(OCCCN4CCOCC4)cc23)c1.Cl.Cl` [NRC-2694-A, N-(3-ethynylphenyl)-7-methoxy-6-(3-morpholinopropoxy) quinazolin-4-amine dihydrochloride] the “patients in whom complete response was maintained” value ([2]; Stage-II monotherapy 300 mg once daily, Arm-I patients with complete response in Stage-I) was 2 patients, the “patients continuing to have partial response” value [2, 7] was “one” and the “patients with progressive disease” value [2, 7] was 1 patients. The “patients with stable disease” value [2, 7] was 2 patients, the “patients continuing to have progressive disease” value ([2]; Stage-II monotherapy, patient with progressive disease in Stage-I) was 1 patients and the “patients achieving complete response” value ([2]; Stage-II monotherapy, patients from Arm-II with partial response and stable disease earlier) was 2 patients. The “patients continuing to have stable disease” value ([2]; Stage-II monotherapy, patients with stable disease in Stage-I) was “Two”, the safety profile ([3]; once daily administration, Phase I) was “tolerable safety profile” and the “MTD (maximum tolerated dose)” value ([3]; oral once daily, dose escalation 100 to 500 mg/day, first 30 day safety data) was 400 mg/day. The “Outcome (tumour evaluation)” value ([4]; Subject No. 0202, Head and Neck, 120 days completed) was “Stable Disease”, the “Outcome (tumour evaluation)” value ([4]; Subject No. 0207, Head and Neck, 79 days completed) was “Stable Disease” and the “Outcome (tumour evaluation)” value ([4]; Subject No. 0211, Head and Neck, 120 days completed) was “Stable Disease”. For the same molecule, the “Outcome (tumour evaluation)” value ([4]; Subject No. 0212, Head and Neck, 120 days completed) was “Partial Response”, the “Outcome (tumour evaluation)” value ([4]; Subject No. 0216, Head and Neck, 120 days completed) was “Stable Disease” and the “anti-tumour activity (effect on tumour size)” value ([4]; patients with recurrent squamous cell carcinoma of the head and neck, oral once daily) was “tumour size reduction or tumour size stasis”. For the same molecule, the “plasma concentration versus dose” value ([5]; Day-1 and Day-12 concentrations) was “dose dependent increase” and the “relationship of pharmacokinetics to dose” value ([5]; patients) was “Dose proportional relationship”.
In the case of “Pembrolizumab: approved monoclonal antibody, immunotherapy for R/M HNSCC”, the ORR ([6]; Pembrolizumab alone, CPS>20 population) is listed as 26% and the ORR ([6]; combination of Pembrolizumab and platinum-based chemotherapy) is listed as 36%.

From US20240285642A1, “EGFR INHIBITOR FOR THE TREATMENT OF HEAD AND NECK CANCER” (NATCO PHARMA LIMITED, priority 2021, published 2024)
